Test results published in article PMC8764033, “Single-molecule analysis of specificity and multivalency in binding of short linear substrate motifs to the APC/C” (Nature Communications, 2022).
Where a SMILES comes first, the peptide text is derived from it.

What was measured:
hCdh1^WD40 = biological target: T1, hCdh1^WD40 (Homo sapiens, UniProt Q9UM11); assay: Fluorescence anisotropy, 10 nM Cy5-labeled peptide, hCdh1^WD40; assay type: binding
T1 construct: human Cdh1 (aa 165–484; pNH164); made in house; host or cells: Sf9 insect cells (baculovirus)
T1 sequence (Q9UM11 165-484): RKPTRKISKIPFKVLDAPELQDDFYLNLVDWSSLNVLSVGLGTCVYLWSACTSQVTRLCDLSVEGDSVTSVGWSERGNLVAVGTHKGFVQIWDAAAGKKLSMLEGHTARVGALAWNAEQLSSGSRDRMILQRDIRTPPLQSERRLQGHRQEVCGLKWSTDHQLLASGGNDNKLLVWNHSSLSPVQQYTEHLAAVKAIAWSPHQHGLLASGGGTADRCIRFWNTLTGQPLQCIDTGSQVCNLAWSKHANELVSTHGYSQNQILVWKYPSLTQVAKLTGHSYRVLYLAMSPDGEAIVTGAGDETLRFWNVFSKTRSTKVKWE
Experimental: Activators were cloned into the pFastBac HT A vector, with an N-terminal 2xStrep-Tag II. For some experiments, we constructed vectors for expression of the WD40 domains of yeast Cdh1 (aa 241–550; pNH144), human Cdh1 (aa 165–484; pNH164), or human Cdc20 (aa 162–484; pNH188). For SMOR, a C-terminal GFP tag was added. Bacmid plasmids are listed in Supplementary Table 3. Plasmids were transformed into DH10Bac cells, and purified Bacmid was used to transfect Sf9 cells to generate P1 baculovirus, which was used to generate P2 virus. SF9 cells were infected with the P2 virus for 48 h. […]
Fluorescent degron peptides carried a C-terminal Cy5 label (CPC Scientific) and are listed in Supplementary Table 4. For anisotropy experiments, 10 nM fluorescent peptide was mixed with various concentrations of purified Cdh1 WD40 in wash buffer B at room temperature for 1 min, which we determined was sufficient for the binding reaction to reach equilibrium. Fluorescence was measured on a K2 Multifrequency Fluorometer at 25 °C. All Cy5-labeled peptides were excited with polarized light at 635 nm and emission was detected using a 700/75 nm bandpass filter (ET series, Chroma). […] Results were the same when peptide binding was measured in the buffer used in SMOR assays (buffer C, below). […]

APC/C^Apc10-4A, Cdh1 = assay: SMOR assay, yeast APC/C^Apc10-4A, Cdh1; assay type: binding, Saccharomyces cerevisiae
Experimental: (§1) Yeast strains were derivatives of W303 and are listed in Supplementary Table 2. For APC/C purification, we used a strain carrying Cdc16-TAP and lacking Cdh1 (DOM1126); in most experiments, the strain also carried Apc1-GFP (NHY13). Yeast were grown in YPD media to OD600 = 0.8, collected and flash-frozen. Cells were lysed by bead beating in lysis buffer A (50 mM HEPES pH 7.5, 150 mM KCl, 10% glycerol, 0.2% Triton X-100, 63 µM B-glycerophosphate, 48 µM sodium fluoride, 1 µg ml^−1 pepstatin A, 1 µg ml^−1 leupeptin, 1 µg ml^−1 aprotinin, 1 mM PMSF, 1 mM DTT, 0.5 mM EDTA) and APC/C was purified using magnetic IgG beads. The beads were washed using wash buffer A (20 mM HEPES pH 7.5, 150 mM KCl, 10% Glycerol, 0.05% Triton X-100). After incubation with purified Cdh1 or Cdc20, the APC/C was cleaved off the beads with TEV protease in wash buffer A with 0.05% Tween-20 (for single-molecule studies) or 0.05% Triton X-100 (for ensemble assays such as ubiquitylation) and used immediately.
(§2) For all SMOR experiments, 24 × 50 mm high precision glass coverslips (Bioscience Tools) and drilled microscope slides were passivated with a combination of PEG and PEG-biotin (coverslips) or PEG only (slides) following a previously published protocol for SiMPull[31]. Reaction chambers (~20 µl) were created using double-sided tape and epoxy. Protein was immobilized on the surface with 0.2 mg ml^−1 NeutrAvidin in buffer C (20 mM HEPES pH 7.5, 150 mM KCl, 10% glycerol, 0.05% Tween-20, 1 mM DTT). Excess NeutrAvidin was washed away and incubated with either biotin-conjugated mouse monoclonal anti-Strep-Tag II antibody (LSBio, Cat. No. LS-C203632-100) or biotin-conjugated rabbit polyclonal anti-GFP antibody (Rockland, Cat. No. 600-406-215) diluted in buffer C + BSA (0.1 mg ml^−1; Molecular Biology Grade Bovine Serum Albumin). Activator WD40 and activated APC/C (typically 50 µl containing about 65 ng APC/C, of which only a small fraction is immobilized on the glass) were immobilized using anti-Strep-Tag II, while APC/C alone was immobilized with anti-GFP. SMOR results were similar when performed in the buffer (wash buffer B) used in polarization anisotropy.
(§3) To capture dynamic protein–protein interactions, dye-labeled substrate diluted in buffer C + BSA was added to the chamber containing immobilized proteins. Interactions were imaged by TIRF microscopy as described below. For optimal signal-to-noise ratio, peptide concentration was no greater than 1 nM. […]
(§4) Microscopy was performed with a Nikon Eclipse TE2000-E with Perfect Focus with a 100 × 1.49na oil, Apo TIRF DIC N2, 0.13-0.2, WD0.12 objective. Movies were recorded using the Andor iXon DU-897E-CSO. […]

APC/C^Apc10-4A, Cdc20 = assay: SMOR assay, yeast APC/C^Apc10-4A, Cdc20; assay type: binding, Saccharomyces cerevisiae
Experimental: as §1, §2, §3, §4

[1] = Supplementary Table 1, replicate 1
[2] = Supplementary Table 1, replicate 2

Compound | binding to human Cdh1 (in words) (hCdh1^WD40) | binding (in words) (APC/C^Apc10-4A, Cdh1) | Dwell Time (in words) (APC/C^Apc10-4A, Cdh1; [1]) | binding (in words) (APC/C^Apc10-4A, Cdc20) | Dwell Time (in words) (APC/C^Apc10-4A, Cdc20; [1]) | Dwell Time (in words) (APC/C^Apc10-4A, Cdh1; [2]) | Dwell Time (in words) (APC/C^Apc10-4A, Cdc20; [2])
LPKATRKALGTVNRATEKSVK-K(Cy5) [AurKB D box, Cy5-labeled D box peptide of Aurora B kinase] | significant but low-affinity binding to Cdh1 |  |  |  |  |  | 
CC[C@H](C)[C@H](NC(=O)[C@H](CC(=O)O)NC(=O)[C@H](CO)NC(=O)[C@H](C)NC(=O)[C@H](C)NC(=O)[C@H](C)NC(=O)[C@H](C)NC(=O)[C@H](CCCCN)NC(=O)[C@@H]1CCCN1C(=O)[C@H](CCCCN)NC(=O)[C@H](CCC(N)=O)NC(=O)[C@@H](N)CCC(=O)O)C(=O)N[C@H](C(=O)N[C@@H](C)C(=O)N[C@@H](CO)C(=O)N[C@@H](Cc1ccccc1)C(=O)N[C@@H](CC(N)=O)C(=O)N[C@@H](CCCCN)C(=O)N[C@@H](CCSC)C(=O)N[C@@H](CC(N)=O)C(=O)N[C@@H](CCCCN)C(=O)O)[C@@H](C)O [Hsl1 D box mutant] (H-EQKPKAAAASDITASFNKMNK-OH; N-terminus and C-terminus assumed) |  | No binding | no binding | No binding | no binding |  | 
CC[C@H](C)[C@H](NC(=O)[C@H](Cc1ccccc1)NC(=O)[C@H](CO)NC(=O)[C@H](CCCCN)NC(=O)[C@H](CO)NC(=O)[C@H](CCCNC(=N)N)NC(=O)[C@H](CC(N)=O)NC(=O)[C@H](CC(N)=O)NC(=O)[C@H](CC(=O)O)NC(=O)[C@H](CCCCN)NC(=O)[C@H](C)NC(=O)[C@H](C)NC(=O)[C@H](CC(C)C)NC(=O)[C@@H]1CCCN1C(=O)[C@H](CC(C)C)NC(=O)[C@H](CCCNC(=N)N)NC(=O)CNC(=O)[C@H](CCC(N)=O)NC(=O)[C@H](CCC(N)=O)NC(=O)[C@H](CCC(N)=O)NC(=O)[C@H](C)N)C(=O)N[C@@H](CCCCN)C(=O)O [ySecurin D box] (H-AQQQGRLPLAAKDNNRSKSFIK-OH; N-terminus and C-terminus assumed) |  |  | single frame |  | single frame | single frame | single frame
LIYVDKENGEPGTR-K(Cy5) [hSecurin KEN, Cy5-labeled KEN box peptide of human securin/Pttg1] | significant but low-affinity binding to Cdh1 |  |  |  |  |  | 
